Each compound was assayed against T1, human cardiac ion channel proteins hKir3.1/Kir3.4 (Homo sapiens, UniProt P48544+P48549) (assay: Atomic Absorption Screening (AAS) Rb efflux assay of hKir3.1/Kir3.4 block, carbachol/high K+ stimulated, 10-pt or 7-pt CR). Conditions: 10-pt CR (0.003 to 67 μmol/L), AAS Rb efflux, CHO-K1 cells expressing hKir3.1/Kir3.4; mean of >4 replicates; read-out: IKACh IC50 10-pt CR, AAS.
T1 construct: expressed in transfected cells
T1 sequence (P48549 1-501): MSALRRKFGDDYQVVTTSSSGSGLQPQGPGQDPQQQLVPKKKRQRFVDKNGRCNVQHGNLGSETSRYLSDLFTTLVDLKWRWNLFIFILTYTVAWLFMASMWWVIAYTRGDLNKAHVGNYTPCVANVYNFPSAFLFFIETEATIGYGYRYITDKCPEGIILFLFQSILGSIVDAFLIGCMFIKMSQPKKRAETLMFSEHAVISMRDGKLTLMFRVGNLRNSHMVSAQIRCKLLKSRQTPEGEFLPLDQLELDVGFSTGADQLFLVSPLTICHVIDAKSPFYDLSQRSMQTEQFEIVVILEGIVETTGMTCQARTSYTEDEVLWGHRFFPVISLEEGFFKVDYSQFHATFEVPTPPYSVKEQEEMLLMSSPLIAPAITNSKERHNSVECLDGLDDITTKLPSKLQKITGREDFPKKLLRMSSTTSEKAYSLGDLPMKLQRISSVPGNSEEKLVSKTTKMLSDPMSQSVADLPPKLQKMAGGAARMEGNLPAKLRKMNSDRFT
T1 sequence (P48544 1-419): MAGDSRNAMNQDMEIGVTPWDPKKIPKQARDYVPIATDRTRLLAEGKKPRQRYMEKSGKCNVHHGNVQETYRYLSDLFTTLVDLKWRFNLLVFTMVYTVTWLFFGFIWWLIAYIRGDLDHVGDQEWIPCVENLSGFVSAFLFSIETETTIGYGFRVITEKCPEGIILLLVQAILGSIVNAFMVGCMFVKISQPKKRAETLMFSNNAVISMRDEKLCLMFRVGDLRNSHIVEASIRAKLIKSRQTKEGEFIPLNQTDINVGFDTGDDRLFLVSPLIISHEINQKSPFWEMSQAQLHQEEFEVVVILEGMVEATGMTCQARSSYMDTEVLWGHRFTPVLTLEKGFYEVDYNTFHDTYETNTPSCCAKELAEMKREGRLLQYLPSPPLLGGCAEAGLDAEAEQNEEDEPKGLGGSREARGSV
Assay type: cell-based
Description: Human KCNJ3 encoding Kir3.1 (Genbank acc. No. NM_002239) was inserted between EcoRI and NotI in the pIRESneo3 vector (Clontech Laboratories, Inc. CA, USA). Human KCNJ5 encoding Kir3.4 (Genbank Acc. No. BC069482) was inserted between EcoR1 and Not1 in the pIRESpuro3 vector (Clontech Laboratories, Inc. CA, USA). A Kozak sequence (GCCACC) was introduced before the start codon ATG of both constructs. Chinese Hamster Ovary K1, CHO-FLP/IN, cells (Invitrogen Corporation, Paisley, UK) were transfected simultaneously using Lipofectamine 2000 reagent (Invitrogen Corporation, Paisley, UK). Geneticin 600 μg/mL (Invitrogen Corporation, Paisley, UK) and puromycin 3 μg/mL (BD Bioscience) were added to the cell culture medium 3 days after transfection. Two weeks after transfection, colonies had appeared and were manually picked and sorted to one cell per well in a 96-well plate. Cells were then tested for Kir3.1 and Kir3.4 expression using membrane potential assay, Western Blot and Immunocytochemistry. […] The cell line was re-sorted by flow cytometry and resulting clones were assayed electrophysiologically using IonWorks (Molecular Devices) and later validated on the Q-Patch (Sophion A/S).
The stable cell line was cultured in DMEM/F12 with Glutamax 1 (Invitrogen Corporation, Paisley, UK), supplemented with foetal bovine serum 10%, puromycin 3 μg/mL, hygromycin 300 μg/mL and geneticin 600 μg/mL (Invitrogen Corporation, Paisley, UK). Care was taken not to seed cells at too low density and cells were passaged at approximately 70-80% confluency. Cells used for patch-clamp experiments were prepared by washing using PBS (—Mg, —Ca^2+), 2 times, detached using Accutase (Sigma). For Q-Patch measurements, storage medium was prepared fresh by adding 1.25 mL of 1M Hepes (GibcoBRL) to 50 mL CHO-SFM II medium (GibcoBRL) and detached cells were diluted to 2 million cells/mL in this medium. Frozen (Cryopreserved) cells were used for Atomic Absorption Screening (AAS) and plated poly-D-lysine 384-well plates (Greiner) at a density of 11,000-13,000 cells/well, the day before assay.
The blocking effects of compounds on the human cardiac ion channel proteins hKir3.1/Kir3.4 were assessed in CHO-K1 cells stably expressing the channel proteins using Atomic Absorption Screening (AAS). Cells were washed and then loaded with 25 μL Rb-loading buffer for three hours at 37° C. After that, the cells were washed again and 25 μL of diluted compound was transferred to the cell plate, incubated for 5 min in RT, and then […] of Carbachol/high K+ (10 μM carbachol and 20 mM KCl final concentration) buffer added to stimulate the cells and open the Kir3.1/Kir3.4 channel. After 10 min stimulation, […] of the supernatant was transferred to a new microplate, 45 μL washing buffer added to the supernatant and the level of Rb in the supernatant was then measured using an Aurora ICR 8000. Compounds were studied at concentrations ranging from 0.003 to 67 μmol/L (dilutions by three, 10-pt CR) or from 0.037 to 27 μmol/L (dilutions by three, 7-pt CR).
Stock solutions of compounds were prepared in DMSO 10 mM and stored at RT. Buffers used for AAS contained (in mM): HEPES 20, NaCl 150, MgCl2 1.0, CaCl2 2.0 and NaH2PO4 0.8 and Glucose 10 (wash 1) or KCl 5 and Glucose 5 (wash 2) or KCl 5 (dilution buffer). The High K^+ channel opener buffer contained (in mM): HEPES 20, NaCl 130, MgCl2 1.0, CaCl2 2.0 and NaH2PO4 0.8 together with KCl 20. Solutions used for Q-Patch (extracellular) in mM: NaCl 145, KCl 4, CaCl2 2.0, MgCl2 1.0, HEPES 10 and glucose 10. The high K^+ extra cellular solution used for Q-Patch in mM: NaCl 96.7, KCl 50.7, CaCl2 2.0, MgCl2 1.0, HEPES 10 and glucose 10 while the intra cellular solution used was (in mM): KCl 120, CaCl2 5.374, MgCl2 1.75, EGTA 10, KOH 3.125, HEPES 10, Na2ATP 4.
Results are given as mean IC50 of >4 replicates (10-pt CR, AAS) or >3 replicates (7-pt CR, AAS). Some of the data in Table 1 are mean values of two or more runs. […]

Cc1cc(C(=O)N(C)[C@H](CN2CC(F)C2)C(C)C)ccc1F [Example 1.5, (S)-4-Fluoro-N-(1-(3-fluoroazetidin-1-yl)-3-methylbutan-2-yl)-N,3-dimethylbenzamide] and CC(C)[C@@H](CN1CC(F)C1)N(C)C(=O)c1ccc(F)c(Cl)c1 [Example 1.8, (S)-3-Chloro-4-fluoro-N-(1-(3-fluoroazetidin-1-yl)-3-methylbutan-2-yl)-N-methylbenzamide] are within 1.5-fold of each other in IC50: 12 µM for the first, 11 µM for the second.

CC(C)[C@@H](CN1CC(F)C1)N(C)C(=O)c1ccc(Cl)cc1 [Example 1.6, (S)-4-Chloro-N-(1-(3-fluoroazetidin-1-yl)-3-methylbutan-2-yl)-N-methylbenzamide] and CC(C)[C@@H](CN1CC(F)C1)N(C)C(=O)c1ccc(Br)cc1 [Example 1.7, (S)-4-Bromo-N-(1-(3-fluoroazetidin-1-yl)-3-methylbutan-2-yl)-N-methylbenzamide] are within 1.5-fold of each other in IC50: 6.7 µM for the first, 5 µM for the second.

Compared with CC(C)[C@@H](CN1CC(F)C1)N(C)C(=O)c1ccc(F)c(C(F)(F)F)c1 [Example 1.9, (S)-4-Fluoro-N-(1-(3-fluoroazetidin-1-yl)-3-methyl-butan-2-yl)-N-methyl-3-(trifluoromethyl)benzamide], CC(C)[C@@H](CN1CCC1)N(C)C(=O)c1ccc(F)c(C(F)(F)F)c1 [Example 1.11, (S)-N-(1-(Azetidin-1-yl)-3-methylbutan-2-yl)-4-fluoro-N-methyl-3-(trifluoromethyl)benzamide] is 3-fold lower in IC50: 3.6 µM for the first, 1.2 µM for the second. The second is the more potent here.

Going from Cc1cc(C(=O)N(C)[C@H](CN2CCC2)C(C)C)ccc1F [Example 1.10, (S)-N-(1-(Azetidin-1-yl)-3-methylbutan-2-yl)-4-fluoro-N,3-dimethylbenzamide] to CC(C)[C@@H](CN1CCC1)N(C)C(=O)c1ccc(F)c(Cl)c1 [Example 1.12, (S)-N-(1-(Azetidin-1-yl)-3-methylbutan-2-yl)-3-chloro-4-fluoro-N-methylbenzamide], the IC50 falls from 6.9 µM to 2.9 µM (2.4-fold). The second is the more potent here.

CC(C)[C@@H](CN1CCC1)N(C)C(=O)c1cccc(Cl)c1 [Example 1.13, (S)-N-(1-(Azetidin-1-yl)-3-methylbutan-2-yl)-3-chloro-N-methylbenzamide] and Cc1cccc(C(=O)N(C)[C@H](CN2CCC2)C(C)C)c1 [Example 1.16, (S)-N-(1-(Azetidin-1-yl)-3-methylbutan-2-yl)-N,3-dimethyl-benzamide] are within 1.5-fold of each other in IC50: 12 µM for the first, 17 µM for the second.

First: CC(C)[C@@H](CN1CCC1)N(C)C(=O)c1ccccc1 [Example 1.14, (S)-N-(1-(Azetidin-1-yl)-3-methylbutan-2-yl)-N-methylbenzamide]
Second: CC(C)[C@@H](CN1CCC1)N(C)C(=O)c1cccc(C(F)(F)F)c1 [Example 1.15, (S)-N-(1-(Azetidin-1-yl)-3-methylbutan-2-yl)-N-methyl-3-(trifluoromethyl)benzamide]
The IC50 of the first is 2.9-fold higher: 6.6 µM for the first, 2.3 µM for the second. The second is the more potent here.

CN(C(=O)c1ccc(Cl)c(Cl)c1)[C@H](CN1CCCC1)C(C)(C)C [Example 2.1, (S)-3,4-Dichloro-N-(3,3-dimethyl-1-(pyrrolidin-1-yl)butan-2-yl)-N-methylbenzamide] and CN(C(=O)c1ccc(Br)cc1)[C@H](CN1CCCC1)C(C)(C)C [Example 2.2, (S)-4-Bromo-N-(3,3-dimethyl-1-(pyrrolidin-1-yl)butan-2-yl)-N-methylbenzamide] are within 1.5-fold of each other in IC50: 11 µM for the first, 14 µM for the second.

CC[C@H](C)[C@@H](CN1CCCC1)N(C)C(=O)c1ccc(Cl)cc1 [Example 2.3, 4-Chloro-N-methyl-N-((2S,3S)-3-methyl-1-(pyrrolidin-1-yl)pentan-2-yl)benzamide] and CC[C@H](C)[C@@H](CN1CCCC1)N(C)C(=O)c1ccc(Br)cc1 [Example 2.4, 4-Bromo-N-methyl-N-((2S,3S)-3-methyl-1-(pyrrolidin-1-yl)pentan-2-yl)benzamide] are within 1.5-fold of each other in IC50: 1.6 µM for the first, 1.8 µM for the second.

First: CC[C@H](C)[C@@H](CN1CCCC1)N(C)C(=O)c1ccc(F)c(C)c1 [Example 2.5, 4-Fluoro-N,3-dimethyl-N-((2S,3S)-3-methyl-1-(pyrrolidin-1-yl)pentan-2-yl)benzamide]
Second: CO[C@H](C)[C@@H](CN1CCCC1)N(C)C(=O)c1ccc(F)c(C)c1 [Example 3.1, 4-Fluoro-N-((2R,3R)-3-methoxy-1-(pyrrolidin-1-yl)butan-2-yl)-N,3-dimethylbenzamide]
The IC50 of the first is 2.7-fold lower: 2.7 µM for the first, 7.4 µM for the second.

Compared with CC[C@H](C)[C@@H](CN1CCCC1)N(C)C(=O)c1ccc(Cl)cc1Cl [Example 2.6, 2,4-Dichloro-N-methyl-N-((2S,3S)-3-methyl-1-(pyrrolidin-1-yl)pentan-2-yl)benzamide], CO[C@H](C)[C@@H](CN1CCCC1)N(C)C(=O)c1ccc(F)c(Cl)c1 [Example 3.3, 3-Chloro-4-fluoro-N-((2R,3R)-3-methoxy-1-(pyrrolidin-1-yl)butan-2-yl)-N-methylbenzamide] is 3.6-fold higher in IC50: 2 µM for the first, 7.2 µM for the second. The first is the more potent here.

Going from CO[C@H](C)[C@@H](CN1CCCC1)N(C)C(=O)c1cccc(C)c1 [Example 3.2, N-((2R,3R)-3-Methoxy-1-(pyrrolidin-1-yl)butan-2-yl)-N,3-dimethylbenzamide] to CO[C@H](C)[C@@H](CN1CCCC1)N(C)C(=O)c1ccc(Br)cc1 [Example 3.4, 4-Bromo-N-((2R,3R)-3-methoxy-1-(pyrrolidin-1-yl)butan-2-yl)-N-methylbenzamide], the IC50 falls from 20 µM to 2.2 µM (9.1-fold). The second is the more potent here.

Going from CO[C@H](C)[C@@H](CN1CCCC1)N(C)C(=O)c1ccc(Cl)cc1 [Example 3.5, 4-Chloro-N-((2R,3R)-3-methoxy-1-(pyrrolidin-1-yl)butan-2-yl)-N-methylbenzamide] to COC1CCN(C[C@H](C(C)C)N(C)C(=O)c2ccc(Br)cc2)CC1 [Example 3.6, (S)-4-Bromo-N-(1-(4-methoxypiperidin-1-yl)-3-methylbutan-2-yl)-N-methylbenzamide], the IC50 falls from 7.2 µM to 3.2 µM (2.2-fold).

From patent publication US8361998B2, “Compounds and their use as IKACh blockers” (AstraZeneca AB, priority 2010, dated 2013)
